Settings: 323.15 K, Liquid, Vibrating tube method

CCCCCCCC(=O)OCC(COC(=O)CCCCCCC)(COC(=O)CCCCCCC)COC(=O)CCCCCCC [pentaerythritol tetraoctanoate]
Settings | mass density [kg/m3]
1092.7 kPa | 941.3
1117.7 kPa | 941.4
1150.2 kPa | 941.4
1178 kPa | 941.4
1206.8 kPa | 941.4
1237.7 kPa | 941.5
1275.6 kPa | 941.4
1308.8 kPa | 941.4
1344.2 kPa | 941.6
1380.8 kPa | 941.4
1426.8 kPa | 941.7
1467.5 kPa | 941.6
1510.3 kPa | 941.7
1707.2 kPa | 941.7
1720.8 kPa | 941.6
1734.6 kPa | 941.9
1749 kPa | 941.8
1766.8 kPa | 941.8
1780.8 kPa | 941.9
1795.7 kPa | 941.8
1810.5 kPa | 941.9
1828.9 kPa | 941.8
1844.2 kPa | 941.8
1859.6 kPa | 942
1875.8 kPa | 941.8
1895.2 kPa | 942
1915.1 kPa | 941.9
1932.3 kPa | 942
1947.8 kPa | 942
1957.8 kPa | 942
1963.7 kPa | 942
1968.9 kPa | 942
1974 kPa | 942
1987.2 kPa | 942.1
2016.7 kPa | 941.9
2142.1 kPa | 942
2259.4 kPa | 942.1
2339.7 kPa | 942.1
2352.9 kPa | 942.3
2366.5 kPa | 942.3
2382.6 kPa | 942.2
2409.7 kPa | 942.5
2426.8 kPa | 942.3
2441.1 kPa | 942.3
2454.6 kPa | 942.4
2468.6 kPa | 942.2
2486 kPa | 942.4
2500.4 kPa | 942.4
2515.6 kPa | 942.2
2533.2 kPa | 942.4
2546 kPa | 942.5
2554.1 kPa | 942.4
2597 kPa | 942.4
2605 kPa | 942.4
2612.9 kPa | 942.4
2622.5 kPa | 942.4
2630.8 kPa | 942.4
2639.1 kPa | 942.4
2648.3 kPa | 942.4
2656.5 kPa | 942.4
2664.8 kPa | 942.5
2674.9 kPa | 942.5
2683.4 kPa | 942.5
2692.2 kPa | 942.4
2701.1 kPa | 942.4
2709.7 kPa | 942.4
2720 kPa | 942.5
2728.5 kPa | 942.4
2737.3 kPa | 942.5
2746.3 kPa | 942.5
2756.7 kPa | 942.6
2765.4 kPa | 942.6
2775.6 kPa | 942.5
2784.8 kPa | 942.5
2793.7 kPa | 942.6
2803.2 kPa | 942.6
2814.5 kPa | 942.5
2821.9 kPa | 942.6
2832.7 kPa | 942.6
2841.7 kPa | 942.5
2852.6 kPa | 942.6
2862.2 kPa | 942.5
2871.5 kPa | 942.6
2880.9 kPa | 942.6
2892.2 kPa | 942.6
2901.4 kPa | 942.6
2911.2 kPa | 942.6
2922.7 kPa | 942.6
2932.2 kPa | 942.6
2944 kPa | 942.6
2953.7 kPa | 942.6
2963.9 kPa | 942.6
2974 kPa | 942.7
2983.7 kPa | 942.7
2995.7 kPa | 942.7
3005.6 kPa | 942.6
3016 kPa | 942.6
3027.9 kPa | 942.7
3038.3 kPa | 942.7
3048.7 kPa | 942.7
3059.1 kPa | 942.7
3071.6 kPa | 942.8
3082 kPa | 942.7
3092.6 kPa | 942.7
3105.1 kPa | 942.7
3115.6 kPa | 942.8
3128.6 kPa | 942.7
3139.4 kPa | 942.6
3150.3 kPa | 942.7
3159 kPa | 942.7
3173.9 kPa | 942.8
3185.2 kPa | 942.8
3196.4 kPa | 942.8
3207.5 kPa | 942.8
3220.5 kPa | 942.8
3232.3 kPa | 942.8
3243.6 kPa | 942.8
3257.1 kPa | 942.9
3268.7 kPa | 942.8
3280 kPa | 942.8
3291.9 kPa | 942.9
3306.1 kPa | 942.9
3317.8 kPa | 942.8
3329.5 kPa | 942.9
3343.6 kPa | 942.8
3355.4 kPa | 942.9
3367.5 kPa | 943
3380.2 kPa | 943
3392.6 kPa | 943.1
3407.2 kPa | 943
3419.3 kPa | 942.9
3431.8 kPa | 943.1
3446.7 kPa | 943
3459.2 kPa | 942.9
3469.6 kPa | 942.9
3479.3 kPa | 943
3494.5 kPa | 942.9
3507.4 kPa | 943
3540.6 kPa | 943
3553.8 kPa | 942.9
3567 kPa | 943.1
3580 kPa | 943.1
3710.3 kPa | 943.1
3724.8 kPa | 943.2
3743.3 kPa | 943
3756.8 kPa | 943.3
3771.5 kPa | 943.2
